Experimental data taken from patent US20050048508A1, “Trehalose receptor and method for detecting trehalose with the same” (KABUSHIKI KAISHA HAYASHIBARA SEIBUTSU KAGAKU KENKYUJO, priority 2002, published 2005).

Target: T1, trehalose receptor (G protein α-subunits and T1R3) (Mus musculus, UniProt Q925D8, I706N)
T1 construct: expressed in transfected cells; host or cells: 293 cells, RCB 1637 (human embryonic kidney)
T1 sequence (Q925D8 21-858 I706N): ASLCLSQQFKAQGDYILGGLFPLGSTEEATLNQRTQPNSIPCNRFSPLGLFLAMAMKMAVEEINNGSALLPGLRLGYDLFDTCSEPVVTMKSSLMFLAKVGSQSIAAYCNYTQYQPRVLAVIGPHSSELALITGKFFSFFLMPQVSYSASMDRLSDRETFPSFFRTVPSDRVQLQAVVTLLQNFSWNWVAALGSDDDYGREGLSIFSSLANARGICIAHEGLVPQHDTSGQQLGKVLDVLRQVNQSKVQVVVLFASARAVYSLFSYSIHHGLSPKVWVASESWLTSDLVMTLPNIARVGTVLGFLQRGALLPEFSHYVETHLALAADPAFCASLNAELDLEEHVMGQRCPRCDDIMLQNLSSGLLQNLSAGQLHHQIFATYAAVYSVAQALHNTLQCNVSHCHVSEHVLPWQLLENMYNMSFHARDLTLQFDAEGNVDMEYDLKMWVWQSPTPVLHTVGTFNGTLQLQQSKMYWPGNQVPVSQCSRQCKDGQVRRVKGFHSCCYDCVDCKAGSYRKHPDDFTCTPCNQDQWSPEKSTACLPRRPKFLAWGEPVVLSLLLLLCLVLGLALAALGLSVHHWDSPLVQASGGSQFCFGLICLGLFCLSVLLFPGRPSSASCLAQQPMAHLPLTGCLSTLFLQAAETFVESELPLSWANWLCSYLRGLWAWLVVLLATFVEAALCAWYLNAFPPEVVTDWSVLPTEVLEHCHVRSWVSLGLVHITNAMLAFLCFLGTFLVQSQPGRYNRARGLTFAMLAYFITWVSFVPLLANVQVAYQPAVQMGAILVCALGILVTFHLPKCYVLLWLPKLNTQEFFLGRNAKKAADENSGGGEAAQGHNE
Assay: Quantitation of trehalose using trehalose receptor, 96-well microplate fluorescence assay
Type: cell-based
Details: for Fluorescence intensity (integral value): 0.1 ml/well added to 100 µl cell suspension, ex 494 nm, em 516 nm
Method: The captioned reactivity test was conducted according to a conventional intracellular calcium ion assay: 293 Cells prepared in Example 3, capable of coexpressing the G protein α-subunits and the sweet taste receptor(s), were cultured in a plastic petri dish for cell culture until reaching its confluent phase. Thereafter, the cells were detached from the inner surface of the petri dish with a 0.05% (v/v) trypsin solution and a 0.53 mM EDTA solution, suspended in D-MEM supplemented with 10% (v/v) fetal calf serum to give a cell density of 1×10^6 cells/ml, and allowed to intake “FLUO-4. AM”, a reagent for detecting intracellular calcium ion commercialized by Molecular Probes Inc., Ore., USA, by adding to the cell suspension to give a final concentration of 2 μM and incubating the cells at 37 ° C. for 30 to 90 min. The resulting cells were washed with a buffer for detecting calcium ion, which contained 10 mM HEPES (pH 7.4), 130 mM sodium chloride, 5.4 mM potassium chloride, 2 mM calcium chloride, 1 mM magnesium chloride, 5.5 mM D-glucose, 0.1% (v/v) calf serum albumin, and 1 mM sodium pyruvate to remove the reagent remained extracellularly; suspended in a fresh preparation of the same buffer to give a cell density of 2.67 ×10^7 cells/ml; filtered with a membrane with a pore size of 100 μm mesh; and allowed to stand at 25° C. for 30 min. Two milliliters of the resultant cell suspension was injected into a glass cuvette, commercialized by Hitachi, Ltd., Tokyo, Japan, and analyzed on “HITACHI 650-40”, a fluorescence spectrophotometer commercialized by Hitachi, Ltd., Tokyo, Japan.
One hundred microliter aliquots of the cell suspension in Example 4 were placed in commercially available 96-well microplates, followed by placing 0.1 ml/well of any of trehalose solutions with different concentrations of 1, 2, 5, 10, 20, 50, 100, 200, 500, 1,000, and 2,000 mM, prepared with trehalose and the same buffer for calcium ion assay as used in Example 4; and assayed on “FLUOROSCAN ASCENT W/DF”, an automatic fluorescence spectrophotometer for multi-plates, Dainippon Pharmaceutical Co., Ltd., Tokyo, Japan, at an excitation wavelength of 494 nm and a fluorescence wavelength of 516 nm, followed by calculating the integral values for the detected fluorescence intensities.

OC[C@H]1O[C@H](O[C@H]2O[C@H](CO)[C@@H](O)[C@H](O)[C@H]2O)[C@H](O)[C@@H](O)[C@@H]1O [Trehalose]
Concentration at which trehalose is detectable (trehalose receptor cells, fluorescence assay of Table 5): ≥ 5 mM
Fluorescence intensity (integral value) (trehalose solution 1 mM): 0.2
Fluorescence intensity (integral value) (trehalose solution 2 mM): 0.5
Fluorescence intensity (integral value) (trehalose solution 5 mM): 10
Fluorescence intensity (integral value) (trehalose solution 10 mM): 19
Fluorescence intensity (integral value) (trehalose solution 20 mM): 29
Fluorescence intensity (integral value) (trehalose solution 50 mM): 45
Fluorescence intensity (integral value) (trehalose solution 100 mM): 82
Fluorescence intensity (integral value) (trehalose solution 200 mM): 159
Fluorescence intensity (integral value) (trehalose solution 500 mM): 421
Fluorescence intensity (integral value) (trehalose solution 1,000 mM): 670
Fluorescence intensity (integral value) (trehalose solution 2,000 mM): 720
